These results are taken from US20250353891A1 (MEDIMMUNE LIMITED, priority 2022, published 2025).

Where two headings read alike, the source gives them in different places. Starred links: 1 amine or outer side, 2 acyl side, 3 side chain; linkers in the order of their positions; H or OH if unused. Non-standard residues stand in square brackets, D forms with d. Residues, ends and D or L forms follow the SMILES beside them. Groups on a side chain read outwards from the residue. *: point of attachment. C20 diacid = O=C(O)CCCCCCCCCCCCCCCCCCC(=O)*; C18 diacid = O=C(O)CCCCCCCCCCCCCCCCC(=O)*; γGlu = O=C(O)[C@H](CCC(=O)[*:2])N[*:1]; Palmitoyl = CCCCCCCCCCCCCCCC(=O)*; αMeF = C[C@](N)(Cc1ccccc1)C(=O)O; PEG2 = NCCOCCOCCC(=O)O; AEEA = NCCOCCOCC(=O)O; Aib = CC(C)(N)C(=O)O

Experiment [1] has as its target human glucagon receptor (hGCGR) (Homo sapiens, UniProt P47871). Kind of experiment: cAMP production (HTRF) in CHO cells expressing hGCGR. The class given is cell-based. On the set-up: expressed in transfected cells. Particulars: cAMP in CHO hGCGR cells, geometric mean, read-out: hGluc-R EC50. Put shortly: (§1)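 Read-out: HTRF cAMP (anti-cAMP cryptate donor, cAMP-d2 acceptor in conjugate/lysis buffer), converted to % Delta F and fitted by 4-parameter logistic for EC50. Cell densities were 1×10^5 cells/mL (hGLP-1R) or 2×10^5 cells/mL (hGCGR). Stimulation lasted 30 min at room temperature.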
(In general: Changes in cAMP serve as a functional read-out for many G protein-coupled receptors.)

In experiment [2] the target is human GLP-1 receptor (hGLP-1R) (Homo sapiens, UniProt P43220). Description: cAMP production (HTRF) in CHO cells expressing hGLP-1R. The class given is cell-based. On the set-up: expressed in transfected cells. Particulars: for EC50: cAMP in CHO hGLP-1R cells, geometric mean, read-out: hGLP-1R EC50; for % Relative Potency Ratio: % GLP-1R activity relative to GLP-1 / % GlucR activity relative to glucagon. In a few lines: as §1
Chain of human GLP-1 receptor (hGLP-1R) (P43220 24-463): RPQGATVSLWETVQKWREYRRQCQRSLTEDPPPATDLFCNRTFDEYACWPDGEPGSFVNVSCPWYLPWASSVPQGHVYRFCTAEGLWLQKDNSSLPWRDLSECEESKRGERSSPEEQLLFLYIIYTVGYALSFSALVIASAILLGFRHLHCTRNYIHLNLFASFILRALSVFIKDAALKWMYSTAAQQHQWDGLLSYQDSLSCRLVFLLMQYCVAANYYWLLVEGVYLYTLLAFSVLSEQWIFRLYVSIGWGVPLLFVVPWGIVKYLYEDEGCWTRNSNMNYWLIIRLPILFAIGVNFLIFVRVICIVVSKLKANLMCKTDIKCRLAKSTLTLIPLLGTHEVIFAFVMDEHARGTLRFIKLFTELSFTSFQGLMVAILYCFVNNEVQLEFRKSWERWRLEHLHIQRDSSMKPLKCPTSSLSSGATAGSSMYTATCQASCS

Where [3] appears, read: Table 6, peptides modified at position 17.
Where [4] appears, read: Table 7, peptides modified at position 20.

Chain of human glucagon receptor (hGCGR) (P47871 26-477): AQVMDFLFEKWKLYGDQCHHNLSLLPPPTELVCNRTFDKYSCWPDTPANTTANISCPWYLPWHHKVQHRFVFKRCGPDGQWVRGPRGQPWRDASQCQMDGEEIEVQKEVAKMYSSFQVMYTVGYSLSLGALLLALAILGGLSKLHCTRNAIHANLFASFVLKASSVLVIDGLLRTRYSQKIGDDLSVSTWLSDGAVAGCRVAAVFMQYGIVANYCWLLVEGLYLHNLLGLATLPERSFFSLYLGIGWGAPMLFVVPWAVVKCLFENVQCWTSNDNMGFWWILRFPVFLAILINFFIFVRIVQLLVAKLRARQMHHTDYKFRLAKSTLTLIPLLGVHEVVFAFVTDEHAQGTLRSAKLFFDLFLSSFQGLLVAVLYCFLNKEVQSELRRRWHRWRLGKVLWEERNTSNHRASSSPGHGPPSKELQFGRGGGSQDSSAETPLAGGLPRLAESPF

Usually EC50 stands for the concentration needed to bring the measured effect to its halfway point. On to `CC(C)C[C@H](NC(=O)[C@H](CC(C)C)NC(=O)C(C)(C)NC(=O)[C@H](CCC(N)=O)NC(=O)[C@@H](NC(=O)[C@H](Cc1ccccc1)NC(=O)[C@H](CC(=O)O)NC(=O)[C@H](CCCNC(=N)N)NC(=O)[C@H](C)NC(=O)[C@H](CCCNC(=N)N)NC(=O)[C@H](CCCCNC(=O)COCCOCCNC(=O)COCCOCCNC(=O)CC[C@H](NC(=O)CCCCCCCCCCCCCCCCC(=O)O)C(=O)O)NC(=O)[C@@H](NC(=O)[C@H](CC(=O)O)NC(=O)[C@H](CC(C)C)NC(=O)[C@](C)(Cc1ccccc1)NC(=O)[C@H](CCCCN)NC(=O)[C@H](CO)NC(=O)[C@@H](NC(=O)[C@H](CC(=O)O)NC(=O)[C@H](CO)NC(=O)[C@@H](NC(=O)[C@H](Cc1ccccc1)NC(=O)[C@@H](NC(=O)CNC(=O)[C@H](CCC(N)=O)NC(=O)C(C)(C)NC(=O)[C@@H](N)Cc1c[nH]cn1)[C@@H](C)O)[C@@H](C)O)C(C)C)[C@@H](C)O)C(C)C)C(=O)N[C@@H](CCC(=O)O)C(=O)NC(C)(C)C(=O)NCC(=O)O` [Peptide 435] (H-H[Aib]QGTFTSDVSK[αMeF]LDTK([AEEA-AEEA-γGlu-C18 diacid])RARDFVQ[Aib]LLE[Aib]G-OH; N-terminus assumed), for which the EC50 in experiment [1] (setting [3]) came to 0.24 nM; in experiment [2] (setting [3]), 0.0227 nM. The “% Relative Potency Ratio” value in experiment [2] (Table 6) was found to be 21.0.
For the compound `CC[C@H](C)[C@H](NC(=O)[C@H](Cc1c[nH]c2ccccc12)NC(=O)[C@H](CCC(N)=O)NC(=O)[C@@H](NC(=O)[C@](C)(Cc1ccccc1)NC(=O)[C@H](CC(=O)O)NC(=O)[C@H](CCCCNC(=O)COCCOCCNC(=O)COCCOCCNC(=O)CC[C@H](NC(=O)CC[C@H](NC(=O)CCCCCCCCCCCCCCCCCCC(=O)O)C(=O)O)C(=O)O)NC(=O)[C@H](C)NC(=O)[C@H](C)NC(=O)[C@H](CCCNC(=N)N)NC(=O)[C@H](CO)NC(=O)[C@H](CC(=O)O)NC(=O)[C@H](CC(C)C)NC(=O)[C@](C)(Cc1ccccc1)NC(=O)[C@H](CCCCN)NC(=O)[C@H](CO)NC(=O)[C@@H](NC(=O)[C@H](CC(=O)O)NC(=O)[C@H](CO)NC(=O)[C@@H](NC(=O)[C@](C)(Cc1ccccc1)NC(=O)[C@H](CO)NC(=O)CNC(=O)[C@H](Cc1c[nH]cn1)NC(=O)C(C)(C)NC(=O)[C@@H](N)Cc1c[nH]cn1)[C@@H](C)O)C(C)C)C(C)C)C(=O)N[C@@H](C)C(=O)N[C@@H](CC(N)=O)C(=O)N[C@H](C(N)=O)[C@@H](C)O` [Peptide 228] (H-H[Aib]HGS[αMeF]TSDVSK[αMeF]LDSRAAK([AEEA-AEEA-γGlu-γGlu-C20 diacid])D[αMeF]VQWIANT-NH2; N-terminus assumed), the EC50 turned out to be 0.177 nM in experiment [1] (setting [4]) and 0.2 nM in experiment [2] (setting [4]). Besides, the “% Relative Potency Ratio” value in experiment [2] (Table 7) was 1.7.
In the case of `CC[C@H](C)[C@H](NC(=O)[C@H](Cc1c[nH]c2ccccc12)NC(=O)[C@H](CCC(N)=O)NC(=O)[C@@H](NC(=O)[C@H](Cc1ccccc1)NC(=O)[C@H](CC(=O)O)NC(=O)[C@H](CCC(N)=O)NC(=O)[C@H](C)NC(=O)[C@H](C)NC(=O)[C@H](CCCCNC(=O)COCCOCCNC(=O)COCCOCCNC(=O)CC[C@H](NC(=O)CCCCCCCCCCCCCCCCC(=O)O)C(=O)O)NC(=O)[C@H](CO)NC(=O)[C@H](CC(=O)O)NC(=O)[C@H](CC(C)C)NC(=O)[C@](C)(Cc1ccccc1)NC(=O)[C@H](CCCCN)NC(=O)[C@H](CO)NC(=O)[C@@H](NC(=O)[C@H](CC(=O)O)NC(=O)[C@H](CO)NC(=O)[C@@H](NC(=O)[C@](C)(Cc1ccccc1)NC(=O)[C@H](CO)NC(=O)CNC(=O)[C@H](CCC(N)=O)NC(=O)[C@H](CO)NC(=O)[C@@H](N)Cc1c[nH]cn1)[C@@H](C)O)C(C)C)C(C)C)C(=O)N[C@@H](C)C(=O)N[C@@H](CC(N)=O)C(=O)N[C@H](C(N)=O)[C@@H](C)O` [Peptide 4] (H-HSQGS[αMeF]TSDVSK[αMeF]LDSK([AEEA-AEEA-γGlu-C18 diacid])AAQDFVQWIANT-NH2), the EC50 in experiment [1] (setting [3]) is 1.17 nM; in experiment [2] (setting [3]), 0.24 nM. In addition, in experiment [2] (Table 6), the “% Relative Potency Ratio” value was determined as 9.6.
For `CC[C@H](C)[C@H](NC(=O)[C@H](Cc1c[nH]c2ccccc12)NC(=O)[C@H](CCC(N)=O)NC(=O)[C@@H](NC(=O)[C@](C)(Cc1ccccc1)NC(=O)[C@H](CC(=O)O)NC(=O)[C@H](CCCCNC(=O)COCCOCCNC(=O)COCCOCCNC(=O)CC[C@H](NC(=O)CC[C@H](NC(=O)CCCCCCCCCCCCCCCCCCC(=O)O)C(=O)O)C(=O)O)NC(=O)[C@H](C)NC(=O)[C@H](C)NC(=O)[C@H](CCCNC(=N)N)NC(=O)[C@H](CO)NC(=O)[C@H](CC(=O)O)NC(=O)[C@H](CC(C)C)NC(=O)[C@](C)(Cc1ccccc1)NC(=O)[C@H](CCCCN)NC(=O)[C@H](CO)NC(=O)[C@@H](NC(=O)[C@H](CC(=O)O)NC(=O)[C@H](CO)NC(=O)[C@@H](NC(=O)[C@](C)(Cc1ccccc1)NC(=O)[C@H](CO)NC(=O)CNC(=O)[C@H](Cc1c[nH]cn1)NC(=O)C(C)(C)NC(=O)[C@@H](N)Cc1c[nH]cn1)[C@@H](C)O)C(C)C)C(C)C)C(=O)N[C@@H](C)C(=O)N[C@@H](CC(N)=O)C(=O)N[C@H](C(=O)NCC(=O)NCC(N)=O)[C@@H](C)O` [Peptide 239] (H-H[Aib]HGS[αMeF]TSDVSK[αMeF]LDSRAAK([AEEA-AEEA-γGlu-γGlu-C20 diacid])D[αMeF]VQWIANTGG-NH2), the EC50 came to 0.705 nM in experiment [1] (setting [4]) and 0.105 nM in experiment [2] (setting [4]). Also, the “% Relative Potency Ratio” value in experiment [2] (Table 7) worked out at 13.2.
As for `CC(C)C[C@H](NC(=O)[C@H](Cc1c[nH]c2ccccc12)NC(=O)[C@H](CCCNC(=N)N)NC(=O)[C@@H](NC(=O)[C@H](Cc1ccccc1)NC(=O)[C@H](CC(=O)O)NC(=O)[C@H](CCC(N)=O)NC(=O)[C@H](C)NC(=O)[C@H](CCCNC(=N)N)NC(=O)[C@H](CCCCNC(=O)COCCOCCNC(=O)COCCOCCNC(=O)CC[C@H](NC(=O)CCCCCCCCCCCCCCCCCCC(=O)O)C(=O)O)NC(=O)[C@H](CO)NC(=O)[C@H](CC(=O)O)NC(=O)[C@H](CC(C)C)NC(=O)[C@](C)(Cc1ccccc1)NC(=O)[C@H](CCCCN)NC(=O)[C@H](CO)NC(=O)[C@@H](NC(=O)[C@H](CC(=O)O)NC(=O)[C@H](CO)NC(=O)[C@@H](NC(=O)[C@H](Cc1ccccc1)NC(=O)[C@@H](NC(=O)CNC(=O)[C@H](CCC(N)=O)NC(=O)C(C)(C)NC(=O)[C@@H](N)Cc1c[nH]cn1)[C@@H](C)O)[C@@H](C)O)C(C)C)C(C)C)C(=O)N[C@@H](CC(C)C)C(=O)N[C@@H](CCC(=O)O)C(=O)NC(C)(C)C(=O)NCC(=O)O` [Peptide 158] (H-H[Aib]QGTFTSDVSK[αMeF]LDSK([AEEA-AEEA-γGlu-C20 diacid])RAQDFVRWLLE[Aib]G-OH; N-terminus assumed), the EC50 in experiment [1] (setting [3]) worked out at 0.333 nM; in experiment [2] (setting [3]), 0.304 nM. Moreover, the “% Relative Potency Ratio” value in experiment [2] (Table 6) is listed as 2.2.
Regarding `CCCCCCCCCCCCCCCC(=O)N[C@@H](CCC(=O)N[C@@H](CCC(=O)NCCOCCOCCC(=O)NCCOCCOCCC(=O)NCCCC[C@H](NC(=O)[C@H](CO)NC(=O)[C@H](CC(=O)O)NC(=O)[C@H](CC(C)C)NC(=O)[C@@H](NC(=O)[C@H](CCCCN)NC(=O)[C@H](CO)NC(=O)[C@@H](NC(=O)[C@H](CC(=O)O)NC(=O)[C@H](CO)NC(=O)[C@@H](NC(=O)[C@](C)(Cc1ccccc1)NC(=O)[C@H](CO)NC(=O)CNC(=O)[C@H](CCC(N)=O)NC(=O)C(C)(C)NC(=O)[C@@H](N)Cc1c[nH]cn1)[C@@H](C)O)C(C)C)[C@@H](C)CC)C(=O)N[C@@H](C)C(=O)N[C@@H](C)C(=O)N[C@@H](CCC(N)=O)C(=O)N[C@@H](CC(=O)O)C(=O)N[C@@](C)(Cc1ccccc1)C(=O)N[C@H](C(=O)N[C@@H](CCC(N)=O)C(=O)N[C@H](C(=O)N[C@H](C(=O)N[C@@H](C)C(=O)N[C@@H](CC(N)=O)C(N)=O)[C@@H](C)CC)[C@@H](C)CC)C(C)C)C(=O)O)C(=O)O` [Peptide 123] (H-H[Aib]QGS[αMeF]TSDVSKILDSK([PEG2-PEG2-γGlu-γGlu-Palmitoyl])AAQD[αMeF]VQIIAN-NH2; N-terminus assumed), the EC50 in experiment [1] (setting [3]) was found to be 0.0129 nM. The “% Relative Potency Ratio” value in experiment [2] (Table 6) came to 51.4.
In the case of `CC[C@H](C)[C@H](NC(=O)C(C)(C)NC(=O)[C@H](CCC(N)=O)NC(=O)[C@@H](NC(=O)[C@](C)(Cc1ccccc1)NC(=O)[C@H](CC(=O)O)NC(=O)[C@H](CCCCNC(=O)COCCOCCNC(=O)COCCOCCNC(=O)CCCCCCCCCCCCCCCCCCC(=O)O)NC(=O)[C@H](C)NC(=O)[C@H](C)NC(=O)[C@H](CCCNC(=N)N)NC(=O)[C@H](CO)NC(=O)[C@H](CC(=O)O)NC(=O)[C@H](CC(C)C)NC(=O)[C@](C)(Cc1ccccc1)NC(=O)[C@H](CCCCN)NC(=O)[C@H](CO)NC(=O)[C@@H](NC(=O)[C@H](CC(=O)O)NC(=O)[C@H](CO)NC(=O)[C@@H](NC(=O)[C@](C)(Cc1ccccc1)NC(=O)[C@H](CO)NC(=O)CNC(=O)[C@H](Cc1c[nH]cn1)NC(=O)C(C)(C)NC(=O)[C@@H](N)Cc1c[nH]cn1)[C@@H](C)O)C(C)C)C(C)C)C(=O)N[C@@H](C)C(=O)N[C@@H](CC(N)=O)C(=O)N[C@H](C(N)=O)[C@@H](C)O` [Peptide 277] (H-H[Aib]HGS[αMeF]TSDVSK[αMeF]LDSRAAK([AEEA-AEEA-C20 diacid])D[αMeF]VQ[Aib]IANT-NH2), the EC50 in experiment [1] (setting [4]) worked out at 0.0573 nM; in experiment [2] (setting [4]), 0.0495 nM. Moreover, the “% Relative Potency Ratio” value in experiment [2] (Table 7) is 2.3.
